Measurements published in patent publication US9994551B2, “Pyridazine derivatives as RORc modulators” (Genentech, Inc., priority 2015, dated 2018).
pIC50: −log10 of the molar value.

Biological target: T1, RORc ligand binding domain (Homo sapiens, UniProt P51449)
T1 construct: host or cells: E. coli
T1 sequence (P51449 269-508 limits assumed): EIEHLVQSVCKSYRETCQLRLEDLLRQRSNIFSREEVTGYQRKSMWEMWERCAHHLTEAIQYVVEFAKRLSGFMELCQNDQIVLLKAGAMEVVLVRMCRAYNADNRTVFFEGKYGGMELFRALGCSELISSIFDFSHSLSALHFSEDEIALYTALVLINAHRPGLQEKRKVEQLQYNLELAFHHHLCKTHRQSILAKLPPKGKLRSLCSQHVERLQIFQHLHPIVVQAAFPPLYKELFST
Assay: In vitro RORc ligand binding assay (25-[3H]hydroxycholesterol displacement, filter binding)
Description: This assay was used to determine a compound's potency in inhibiting activity of RORc by determining, Kiapp, IC50, or percent inhibition values.
On day of the assay, 100 uL of 0.05% CHAPS (in deionized H2O) was added to all wells of the GFB Unifilter plate and allowed soak for 1 h. A wash buffer of 50 mM HEPES (pH 7.4), 150 mM NaCl, and 5 mM MgCl2 was prepared to wash the filter plate. To prepare an assay buffer, BSA was added to the wash buffer to reach 0.01% and DTT was added to reach 1 mM.
The 20× compound stocks were diluted in DMSO with Assay Buffer 4-fold to reach 5× the final test concentration in 25% DMSO (10 uL compound+30 uL Assay Buffer). Solutions were mixed by aspiration several times with a pipette set on 50 uL volume. For the assay, 10 uL of 5× compound stock solutions in 25% DMSO were added to the assay plate in duplicate.
For two point screening, 10 mM stock compound solutions were diluted in DMSO to obtain 200 uM (20× the high test concentration) and then diluted 10-fold further to reach 20 uM (20× the low test concentration). The 20× stocks were diluted 4-fold with Assay Buffer (10 uL compound+30 uL Assay Buffer) to reach 5× the test concentrations (50 uM and 5 uM) and 10 uL were added to two assay plates for the duplicate wells. With each concentration tested on 2 plates, each set of 80 compounds used 4 assay plates (1 uM and 10 uM, with n=2).
For 25-hydroxycholesterol in 25% DMSO/75% Assay Buffer; 10 uL per well was used for NSB samples. Wells for Total Binding and No Receptor sample determination contained 10 uL of 25% DMSO/75% Assay Buffer per well.
Add 20 uL to all wells to reach 6 nM final concentration in the assay.
Stock receptor solution was diluted in assay buffer to obtain 1.5 ug/mL in Assay Buffer. 20 uL was added to all wells. For No Receptor samples, 20 uL Assay Buffer was substituted for receptor solution.
Assay plates were 96-well polypropylene V-bottom plates. 10 uL of 5× compound in 25% DMSO/75% Assay Buffer was added to Test wells. 10 uL of 25% DMSO/75% Assay Buffer was added to Total Binding or No Receptor wells. 10 uL of 5 uM 25-hydroxycholesterol in 25% DMSO/75% Assay Buffer was added to NSB wells. […] 20 uL of 1.5 ug/mL RORc receptor was added to wells (or 40 uL Assay Buffer to No R wells). Following addition to the wells, the plates were incubated 3 h at 25° C.
Using a Packard Filtermate Harvester, the filter plate were washed 4 times following transfer of the incubated samples. Plates were dry-filtered completely (2 h at 50° C. or overnight at room temperature). 50 uL Microscint 0 was added to all wells and read on Topcount protocol Inverted.

SMILES	pIC50
CC[C@@H](O[C@@]12CC[C@@H](c3cc(-c4c(F)cccc4F)nnc31)C2(C)C)C(=O)N(C)CCOC [Compound 100, (R)-2-(((5S,8R)-3-(2,6-difluorophenyl)-9,9-dimethyl-5,6,7,8-tetrahydro-5,8-methanocinnolin-8-yl)oxy)-N-(2-methoxyethyl)-N-methylbutanamide]	7.33
CC[C@@H](O[C@@]12CC[C@@H](c3cc(-c4c(F)cccc4F)nnc31)C2(C)C)C(=O)NCCS(C)(=O)=O [Compound 102, (R)-2-(((5S,8R)-3-(2,6-difluorophenyl)-9,9-dimethyl-5,6,7,8-tetrahydro-5,8-methanocinnolin-8-yl)oxy)-N-(2-(methylsulfonyl)ethyl)butanamide]	7.21
CN1CCO[C@@H]([C@@]23CC[C@@H](c4cc(-c5c(F)cccc5F)nnc42)C3(C)C)C1 [Compound 71, (S)-2-((5R,8R)-3-(2,6-difluorophenyl)-9,9-dimethyl-5,6,7,8-tetrahydro-5,8-thanocinnolin-8-yl)-4-methylmorpholine]	6.43
CNC(=O)c1nnc([C@@]23CC[C@@H](c4cc(-c5c(F)cccc5F)nnc42)C3(C)C)o1 [Compound 3, 5-((5R,8R)-3-(2,6-difluorophenyl)-9,9-dimethyl-5,6,7,8-tetrahydro-5,8-methanocinnolin-8-yl)-N-methyl-1,3,4-oxadiazole-2-carboxamide]	6.55
CC[C@@H](O[C@@]12CC[C@@H](c3cc(-c4c(F)cccc4F)nnc31)C2(C)C)C(=O)N1CCCOCC1 [Compound 101, (R)-2-(((5S,8R)-3-(2,6-difluorophenyl)-9,9-dimethyl-5,6,7,8-tetrahydro-5,8-methanocinnolin-8-yl)oxy)-1-(1,4-oxazepan-4-yl)butan-1-one]	6.83
CCOC(=O)c1coc(N2CCO[C@H]([C@@]34CC[C@@H](c5cc(-c6c(F)cccc6F)nnc53)C4(C)C)C2)n1 [Compound 126, ethyl 2-[2[5-(2,6-difluorophenyl)-11,11-dimethyl-3,4-diazatricyclo[6.2.1.02,7]undeca-2,4,6-trien-1-yl]morpholin-4-yl]oxazole-4-carboxylate]	6.37
CC1(C)[C@H]2CC[C@]1(Oc1cnccn1)c1nnc(-c3c(F)cccc3F)cc12 [Compound 11, (5S,8R)-3-(2,6-difluorophenyl)-9,9-dimethyl-8-(pyrazin-2-yloxy)-5,6,7,8-tetrahydro-5,8-methanocinnoline]	7.10
CC[C@@H](C[C@@]12CC[C@@H](c3cc(-c4c(F)cccc4F)nnc31)C2(C)C)C(N)=O [Compound 5, (S)-2-(((5R,8R)-3-(2,6-difluorophenyl)-9,9-dimethyl-5,6,7,8-tetrahydro-5,8-methanocinnolin-8-yl)methyl)butanamide]	7.17
Cc1noc(N2CCO[C@H]([C@@]34CC[C@@H](c5cc(-c6c(F)cccc6F)nnc53)C4(C)C)C2)n1 [Compound 84, (R)-2-((5R,8R)-3-(2,6-difluorophenyl)-9,9-dimethyl-5,6,7,8-tetrahydro-5,8-methanocinnolin-8-yl)-4-(3-methyl-1,2,4-oxadiazol-5-yl)morpholine]	6.56
CC1(C)[C@H]2CC[C@]1([C@H]1CN(C(=O)c3cnco3)CCO1)c1nnc(-c3c(F)cccc3F)cc12 [Compound 94, ((S)-2-((5R,8R)-3-(2,6-difluorophenyl)-9,9-dimethyl-5,6,7,8-tetrahydro-5,8-methanocinnolin-8-yl)morpholino)(oxazol-5-yl)methanone]	7.12
C[C@H](O[C@@]12CC[C@@H](c3cc(-c4c(F)cccc4F)nnc31)C2(C)C)C(N)=O [Compound 43, (S)-2-(((5S,8R)-3-(2,6-difluorophenyl)-9,9-dimethyl-5,6,7,8-tetrahydro-5,8-methanocinnolin-8-yl)oxy)propanamide]	6.52
CC[C@H](O[C@@]12CC[C@@H](c3cc(-c4c(F)cccc4F)nnc31)C2(C)C)c1nnc(C)o1 [Compound 21, 2-((S)-1-(((5S,8R)-3-(2,6-difluorophenyl)-9,9-dimethyl-5,6,7,8-tetrahydro-5,8-methanocinnolin-8-yl)oxy)propyl)-5-methyl-1,3,4-oxadiazole]	7.29

Now those with a higher pIC50, led by results:

pIC50	SMILES
7.37	CC[C@H](O[C@@]12CC[C@@H](c3cc(-c4c(F)cccc4F)nnc31)C2(C)C)C(=O)NCCS(C)(=O)=O [Compound 26, (S)-2-(((5S,8R)-3-(2,6-difluorophenyl)-9,9-dimethyl-5,6,7,8-tetrahydro-5,8-methanocinnolin-8-yl)oxy)-N-(2-(methylsulfonyl)ethyl)butanamide]
8.16	COC(=O)N1CCC[C@H]([C@@]23CC[C@@H](c4cc(-c5c(F)cccc5F)nnc42)C3(C)C)C1 [Compound 99, (R)-methyl 3-((5R,8R)-3-(2,6-difluorophenyl)-9,9-dimethyl-5,6,7,8-tetrahydro-5,8-methanocinnolin-8-yl)piperidine-1-carboxylate]
8.13	CC1(C)[C@H]2CC[C@]1([C@H]1CCCN(C(=O)NCCO)C1)c1nnc(-c3c(F)cccc3F)cc12 (stereo in doubt) [Compound 152, 3-[5-(2,6-difluorophenyl)-11,11-dimethyl-3,4-diazatricyclo[6.2.1.02,7]undeca-2,4,6-trien-1-yl]-N-(2-hydroxyethyl)piperidine-1-carboxamide]
8.11	C[C@H](O)CNC(=O)N1CCC[C@H]([C@@]23CC[C@@H](c4cc(-c5c(F)cccc5F)nnc42)C3(C)C)C1 [Compound 151, 3-[5-(2,6-difluorophenyl)-11,11-dimethyl-3,4-diazatricyclo[6.2.1.02,7]undeca-2,4,6-trien-1-yl]-N-(2-hydroxypropyl)piperidine-1-carboxamide]
7.74	Cc1coc(N2CCO[C@@H]([C@@]34CC[C@@H](c5cc(-c6c(F)cccc6F)nnc53)C4(C)C)C2)n1 [Compound 145, 2-[5-(2,6-difluorophenyl)-11,11-dimethyl-3,4-diazatricyclo[6.2.1.02,7]undeca-2,4,6-trien-1-yl]-4-(4-methyloxazol-2-yl)morpholine]
7.74	CC1(C)[C@H]2CC[C@]1([C@H]1CCCN(c3ccc(Cl)nn3)C1)c1nnc(-c3c(F)cccc3F)cc12 [Compound 170, 1-[1-(6-chloropyridazin-3-yl)-3-piperidyl]-5-(2,6-difluorophenyl)-11,11-dimethyl-3,4-diazatricyclo[6.2.1.02,7]undeca-2,4,6-triene]
8.35	CC1(C)C2CCC1(C1CCCN(C(=O)c3ncco3)C1)c1nnc(-c3c(F)cccc3F)cc12 (centres unmarked) [Compound 159, [3-[5-(2,6-difluorophenyl)-11,11-dimethyl-3,4-diazatricyclo[6.2.1.02,7]undeca-2,4,6-trien-1-yl]-1-piperidyl]-oxazol-2-yl-methanone]
8.40	Cc1coc(N2CCO[C@H]([C@@]34CC[C@@H](c5cc(-c6c(F)cccc6F)nnc53)C4(C)C)C2)n1 [Compound 134, 2-[5-(2,6-difluorophenyl)-11,11-dimethyl-3,4-diazatricyclo[6.2.1.02,7]undeca-2,4,6-trien-1-yl]-4-(4-methyloxazol-2-yl)morpholine]
8.54	CN1CCN(C(N)=O)C[C@H]1[C@@]12CC[C@@H](c3cc(-c4c(F)cccc4F)nnc31)C2(C)C [Compound 179, 3-[5-(2,6-difluorophenyl)-11,11-dimethyl-3,4-diazatricyclo[6.2.1.02,7]undeca-2,4,6-trien-1-yl]-4-methyl-piperazine-1-carboxamide]
7.78	CC1(C)[C@H]2CC[C@]1([C@H]1CN(c3ccccn3)CCO1)c1nnc(-c3c(F)cccc3F)cc12 [Compound 82, (S)-2-((5R,8R)-3-(2,6-difluorophenyl)-9,9-dimethyl-5,6,7,8-tetrahydro-5,8-methanocinnolin-8-yl)-4-(pyridin-2-yl)morpholine]
7.44	CC1(C)[C@H]2CC[C@]1([C@H]1CCCN(c3cccc(=O)[nH]3)C1)c1nnc(-c3c(F)cccc3F)cc12 [Compound 174, 6-[3-[5-(2,6-difluorophenyl)-11,11-dimethyl-3,4-diazatricyclo[6.2.1.02,7]undeca-2,4,6-trien-1-yl]-1-piperidyl]-1H-pyridin-2-one]
